Test results: US8735414B2 (priority 2009, dated 2014)

Legend:
[1] = test system: bicistronic HCV replicon (replicon RNA, GenBank Accession No. AJ242654); experiment: HCV Replicon Assay; assay type: cell-based; details: Hepatitis C virus, 72 h, read-out: Replicon IC50

## CC(C)n1c(-c2ccc(S(=O)(=O)N[C@@H](C)C(F)(F)F)cn2)c(C(N)=O)c2c(F)cc(OC(F)F)cc21 [compound 839, 6-(difluoromethoxy)-4-fluoro-1-(propan-2-yl)-2-(5-{[(2S)-1,1,1-trifluoropropan-2-yl]sulfamoyl}pyridin-2-yl)-1H-indole-3-carboxamide]
[1]
  IC50: < 500 nM
other
  melting point: 197 to 198 °C

## Cc1ccc2c(c1)c(C#N)c(-c1ncc(S(=O)(=O)N[C@@H](C)C(F)(F)F)cn1)n2CC1CC1 [compound 389, 2-[3-cyano-1-(cyclopropylmethyl)-5-methyl-1H-indol-2-yl]-N-[(2S)-1,1,1-trifluoropropan-2-yl]pyrimidine-5-sulfonamide]
[1]
  IC50: 500 to 2000 nM
other
  melting point: 220 to 223 °C

## CC(C)NS(=O)(=O)c1cnc(-c2c(C#N)c3ccc(F)cc3n2C2CCCCC2)nc1 [compound 251, 2-(3-cyano-1-cyclohexyl-6-fluoro-1H-indol-2-yl)-N-(propan-2-yl)pyrimidine-5-sulfonamide]
[1]
  IC50: 500 to 2000 nM
other
  melting point: 200 to 202 °C

## Cc1ccc2c(c1)c(C#N)c(-c1ncc(S(=O)(=O)N[C@@H](C)C(F)(F)F)cn1)n2C1CCCC1 [compound 391, 2-(3-cyano-1-cyclopentyl-5-methyl-1H-indol-2-yl)-N-[(2S)-1,1,1-trifluoropropan-2-yl]pyrimidine-5-sulfonamide]
[1]
  IC50: < 500 nM
other
  melting point: 180 to 185 °C

## CCc1cc2c(cc1F)c(C#N)c(-c1ccc(S(=O)(=O)N[C@@H](C)C(F)(F)F)cn1)n2-c1cnccn1 [compound 929, 6-[3-cyano-6-ethyl-5-fluoro-1-(pyrazin-2-yl)-1H-indol-2-yl]-N-[(2S)-1,1,1-trifluoropropan-2-yl]pyridine-3-sulfonamide]
[1]
  IC50: < 500 nM
other
  melting point: 225 to 229 °C

## Cc1ccc2c(C#N)c(-c3ccc(S(=O)(=O)N[C@H](C)C(F)(F)F)cn3)n(C3CCCCC3)c2c1 [compound 213, 6-(3-cyano-1-cyclohexyl-6-methyl-1H-indol-2-yl)-N-[(2R)-1,1,1-trifluoropropan-2-yl]pyridine-3-sulfonamide]
[1]
  IC50: < 500 nM
other
  melting point: 208 to 212 °C

## Cc1ccc2c(c1)c(C#N)c(-c1ncc(S(=O)(=O)NC(CF)CF)cn1)n2C1CCCCC1 [compound 198, 2-(3-cyano-1-cyclohexyl-5-methyl-1H-indol-2-yl)-N-(1,3-difluoropropan-2-yl)pyrimidine-5-sulfonamide]
[1]
  IC50: 500 to 2000 nM
other
  melting point: 211 to 215 °C

## N#Cc1c(-c2ccc(S(=O)(=O)NC(CF)CF)cn2)n(C2CCC2)c2cc(C(F)F)ccc12 [compound 331, 6-[3-cyano-1-cyclobutyl-6-(difluoromethyl)-1H-indol-2-yl]-N-(1,3-difluoropropan-2-yl)pyridine-3-sulfonamide]
[1]
  IC50: < 500 nM
other
  melting point: 217 to 222 °C

## CCc1cc2c(cc1F)c(C#N)c(-c1ccc(S(=O)(=O)N[C@H](C)C(F)(F)F)cn1)n2C1CCCC1 [compound 632, 6-(3-cyano-1-cyclopentyl-6-ethyl-5-fluoro-1H-indol-2-yl)-N-[(2R)-1,1,1-trifluoropropan-2-yl]pyridine-3-sulfonamide]
[1]
  IC50: < 500 nM
other
  melting point: 205.5 to 206 °C

## Cc1cc2c(cc1F)c(C(=O)O)c(-c1ccc(S(=O)(=O)NC(C)(C)C)cn1)n2C1CCCC1 [compound 766, 2-[5-(tert-butylsulfamoyl)pyridin-2-yl]-1-cyclopentyl-5-fluoro-6-methyl-1H-indole-3-carboxylic acid]
[1]
  IC50: < 500 nM
other
  melting point: 238 to 240 °C

## COc1cc2c(cc1F)c(C#N)c(-c1ncc(S(=O)(=O)NC(CF)CF)cn1)n2C1CCC1 [compound 150, 2-(3-cyano-1-cyclobutyl-5-fluoro-6-methoxy-1H-indol-2-yl)-N-(1,3-difluoropropan-2-yl)pyrimidine-5-sulfonamide]
[1]
  IC50: < 500 nM
other
  melting point: 245 to 247 °C

## Cc1c(F)cc2c(C#N)c(-c3ccc(S(=O)(=O)N[C@@H](C)C(F)(F)F)cn3)n(C3CCC3)c2c1F [compound 532, 6-(3-cyano-1-cyclobutyl-5,7-difluoro-6-methyl-1H-indol-2-yl)-N-[(2S)-1,1,1-trifluoropropan-2-yl]pyridine-3-sulfonamide]
[1]
  IC50: < 500 nM
other
  melting point: 186 to 191 °C

## Cc1cc2c(cc1F)c(C(N)=O)c(-c1ccc(S(=O)(=O)N[C@@H](C)C(F)(F)F)cn1)n2-c1cccc(F)n1 [compound 877, 5-fluoro-1-(6-fluoropyridin-2-yl)-6-methyl-2-(5-{[(2S)-1,1,1-trifluoropropan-2-yl]sulfamoyl}pyridin-2-yl)-1H-indole-3-carboxamide]
[1]
  IC50: < 500 nM
other
  melting point: 210 to 214 °C

## CCc1cc2c(cc1F)c(C#N)c(-c1ccc(S(=O)(=O)NC(C)(C)C)cn1)n2-c1ccccc1 [compound 884, N-tert-butyl-6-(3-cyano-6-ethyl-5-fluoro-1-phenyl-1H-indol-2-yl)pyridine-3-sulfonamide]
[1]
  IC50: < 500 nM
other
  melting point: 175 to 180 °C

## N#Cc1c(-c2ncc(S(=O)(=O)NC(CF)CF)cn2)n(C2CCC2)c2ccc(F)cc12 [compound 452, 2-(3-cyano-1-cyclobutyl-5-fluoro-1H-indol-2-yl)-N-(1,3-difluoropropan-2-yl)pyrimidine-5-sulfonamide]
[1]
  IC50: < 500 nM
other
  melting point: 175 to 180 °C

## N#Cc1c(-c2ccc(S(=O)(=O)NC(CF)CF)cn2)n(-c2ccccc2F)c2cc(OC(F)F)ccc12 [compound 227, 6-[3-cyano-6-(difluoromethoxy)-1-(2-fluorophenyl)-1H-indol-2-yl]-N-(1,3-difluoropropan-2-yl)pyridine-3-sulfonamide]
[1]
  IC50: < 500 nM
other
  melting point: 188 to 191 °C

## N#Cc1c(-c2ccc(S(=O)(=O)NC3(C(F)(F)F)CC3)cn2)n(C2CCC2)c2ccc(F)cc12 [compound 329, 6-(3-cyano-1-cyclobutyl-5-fluoro-1H-indol-2-yl)-N-[1-(trifluoromethyl)cyclopropyl]pyridine-3-sulfonamide]
[1]
  IC50: < 500 nM
other
  melting point: 176 to 183 °C

## C[C@H](NS(=O)(=O)c1cnc(-c2c(C#N)c3cc(Cl)ccc3n2C2CCCCC2)nc1)C(F)(F)F [compound 464, 2-(5-chloro-3-cyano-1-cyclohexyl-1H-indol-2-yl)-N-[(2S)-1,1,1-trifluoropropan-2-yl]pyrimidine-5-sulfonamide]
[1]
  IC50: 500 to 2000 nM
other
  melting point: 253 to 255 °C

## Cc1ccc2c(C#N)c(-c3ccc(S(=O)(=O)NC(C)(C)C(F)(F)F)cn3)n(C3CCC3)c2c1F [compound 578, 6-(3-cyano-1-cyclobutyl-7-fluoro-6-methyl-1H-indol-2-yl)-N-(1,1,1-trifluoro-2-methylpropan-2-yl)pyridine-3-sulfonamide]
[1]
  IC50: < 500 nM
other
  melting point: 168 to 175 °C

## C[C@H](NS(=O)(=O)c1cnc(-c2c(C#N)c3ccc(OC(F)F)cc3n2C2CCC2)nc1)C(F)(F)F [compound 323, 2-[3-cyano-1-cyclobutyl-6-(difluoromethoxy)-1H-indol-2-yl]-N-[(2S)-1,1,1-trifluoropropan-2-yl]pyrimidine-5-sulfonamide]
[1]
  IC50: < 500 nM
other
  melting point: 221 to 223 °C

## Cc1ccc2c(C#N)c(-c3ccc(S(=O)(=O)NC(C)C)cn3)n([C@@H]3CCOC3)c2c1 [compound 55, 6-{3-cyano-6-methyl-1-[(3R)-tetrahydrofuran-3-yl]-1H-indol-2-yl}-N-(propan-2-yl)pyridine-3-sulfonamide]
[1]
  IC50: < 500 nM
other
  melting point: 164 to 167 °C

## NC(=O)c1c(-c2ccc(S(=O)(=O)NC(CF)CF)cn2)n(C2CCC2)c2cc(OC(F)F)ccc12 [compound 581, 1-cyclobutyl-6-(difluoromethoxy)-2-{5-[(1,3-difluoropropan-2-yl)sulfamoyl]pyridin-2-yl}-1H-indole-3-carboxamide]
[1]
  IC50: < 500 nM
other
  melting point: 211 to 213 °C

## N#Cc1c(-c2ccc(S(=O)(=O)NC(CF)CF)cn2)n(CC2CC2)c2cc(Cl)c(F)cc12 [compound 110, 6-[6-chloro-3-cyano-1-(cyclopropylmethyl)-5-fluoro-1H-indol-2-yl]-N-(1,3-difluoropropan-2-yl)pyridine-3-sulfonamide]
[1]
  IC50: < 500 nM
other
  melting point: 202 to 204 °C

## C[C@H](NS(=O)(=O)c1ccc(-c2c(C#N)c3ccc(OC(F)F)cc3n2C2CCCC2)nc1)C1CC1 [compound 174, 6-[3-cyano-1-cyclopentyl-6-(difluoromethoxy)-1H-indol-2-yl]-N-[(1S)-1-cyclopropylethyl]pyridine-3-sulfonamide]
[1]
  IC50: < 500 nM
other
  melting point: 176 to 182 °C

## CC(C)NS(=O)(=O)c1ccc(-c2c(C#N)c3cc(F)ccc3n2CC2CC2)nc1 [compound 6, 6-[3-cyano-1-(cyclopropylmethyl)-5-fluoro-1H-indol-2-yl]-N-(propan-2-yl)pyridine-3-sulfonamide]
[1]
  IC50: < 500 nM
other
  melting point: 160 to 162 °C

## C[C@H](NS(=O)(=O)c1ccc(-c2c(C#N)c3ccc(CF)cc3n2C2CCC2)nc1)C(F)(F)F [compound 362, 6-[3-cyano-1-cyclobutyl-6-(fluoromethyl)-1H-indol-2-yl]-N-[(2S)-1,1,1-trifluoropropan-2-yl]pyridine-3-sulfonamide]
[1]
  IC50: < 500 nM
other
  melting point: 205 to 209 °C

## Cc1cc2c(cc1F)c(C#N)c(-c1ccc(S(=O)(=O)N[C@@H](C)C(F)(F)F)cn1)n2-c1ccc(Cl)s1 [compound 1032, 6-[1-(5-chlorothiophen-2-yl)-3-cyano-5-fluoro-6-methyl-1H-indol-2-yl]-N-[(2S)-1,1,1-trifluoropropan-2-yl]pyridine-3-sulfonamide]
[1]
  IC50: < 500 nM
other
  melting point: 244.8 to 247.4 °C

## Cc1ccc2c(C#N)c(-c3ccc(S(=O)(=O)NC(C)(C)C(F)(F)F)cn3)n(C3CCCC3)c2c1F [compound 579, 6-(3-cyano-1-cyclopentyl-7-fluoro-6-methyl-1H-indol-2-yl)-N-(1,1,1-trifluoro-2-methylpropan-2-yl)pyridine-3-sulfonamide]
[1]
  IC50: < 500 nM
other
  melting point: 203 to 205 °C
